{
  "source": "patent US9458110B2",
  "about": "“Phenylpyrazole derivatives as potent ROCK1 and ROCK2 inhibitors” (BRISTOL-MYERS SQUIBB COMPANY, priority 2013, dated 2016)",
  "key": {"[1]": {"system": "rat models of hypertension", "settings": "cited from earlier work"}, "neointimal formation": {"system": "neointimal formation", "settings": "rats, balloon injury model; cited from earlier work"}, "[2]": {"system": "congestive heart failure in Dahl salt-sensitive rats", "settings": "cited from earlier work"}, "[3]": {"system": "IL-1 beta-induced coronary stenosis", "settings": "long term treatment; cited from earlier work"}, "ROCK1": {"target": "ROCK1 (Homo sapiens (Human), UniProt Q13464)", "sequence (Q13464 whole entry, species assumed)": "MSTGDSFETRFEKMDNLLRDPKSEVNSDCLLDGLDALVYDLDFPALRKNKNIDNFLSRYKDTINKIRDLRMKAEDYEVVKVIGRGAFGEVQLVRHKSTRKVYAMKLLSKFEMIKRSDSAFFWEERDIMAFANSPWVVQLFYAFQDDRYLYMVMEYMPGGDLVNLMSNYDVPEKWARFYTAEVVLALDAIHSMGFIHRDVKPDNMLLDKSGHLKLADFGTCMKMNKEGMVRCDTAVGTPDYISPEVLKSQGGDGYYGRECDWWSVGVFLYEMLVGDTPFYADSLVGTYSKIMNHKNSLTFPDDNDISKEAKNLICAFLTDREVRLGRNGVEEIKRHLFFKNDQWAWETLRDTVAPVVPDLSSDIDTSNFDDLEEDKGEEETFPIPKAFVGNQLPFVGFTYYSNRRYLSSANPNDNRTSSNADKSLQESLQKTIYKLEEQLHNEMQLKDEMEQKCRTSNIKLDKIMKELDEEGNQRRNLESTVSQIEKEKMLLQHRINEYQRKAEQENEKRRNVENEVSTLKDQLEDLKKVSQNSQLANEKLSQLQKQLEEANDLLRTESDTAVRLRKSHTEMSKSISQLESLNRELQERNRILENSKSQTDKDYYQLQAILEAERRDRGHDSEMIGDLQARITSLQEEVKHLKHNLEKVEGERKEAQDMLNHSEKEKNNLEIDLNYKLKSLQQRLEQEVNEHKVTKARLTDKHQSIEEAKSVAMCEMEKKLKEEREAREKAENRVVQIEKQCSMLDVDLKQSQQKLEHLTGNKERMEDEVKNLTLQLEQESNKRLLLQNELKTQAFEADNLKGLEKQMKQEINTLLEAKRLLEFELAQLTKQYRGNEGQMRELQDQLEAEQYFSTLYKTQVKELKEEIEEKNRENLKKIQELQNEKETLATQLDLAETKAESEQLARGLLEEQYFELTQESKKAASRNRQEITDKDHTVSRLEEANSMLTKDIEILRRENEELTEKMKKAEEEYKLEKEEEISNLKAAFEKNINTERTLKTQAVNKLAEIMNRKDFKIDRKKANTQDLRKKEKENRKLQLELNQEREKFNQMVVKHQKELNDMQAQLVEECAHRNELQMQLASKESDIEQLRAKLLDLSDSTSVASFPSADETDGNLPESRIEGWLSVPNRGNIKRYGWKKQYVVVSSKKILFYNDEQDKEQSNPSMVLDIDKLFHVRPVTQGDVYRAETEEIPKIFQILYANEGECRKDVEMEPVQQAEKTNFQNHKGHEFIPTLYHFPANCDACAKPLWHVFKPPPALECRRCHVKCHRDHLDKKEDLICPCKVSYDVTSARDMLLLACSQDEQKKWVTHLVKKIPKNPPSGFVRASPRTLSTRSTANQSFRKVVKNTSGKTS", "assay": "ROCK assay (Caliper LABCHIP peptide phosphorylation), ROCK1;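 also: Read-out is separation of phosphorylated from unphosphorylated peptide, with kinase activity inhibition computed at every concentration of a dose-response series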", "type": "biochemical", "settings": "5 μM ATP, 1.5 μM peptide substrate"}, "ROCK2": {"target": "ROCK2 (Homo sapiens (Human), UniProt O75116)", "sequence (O75116 whole entry, species assumed)": "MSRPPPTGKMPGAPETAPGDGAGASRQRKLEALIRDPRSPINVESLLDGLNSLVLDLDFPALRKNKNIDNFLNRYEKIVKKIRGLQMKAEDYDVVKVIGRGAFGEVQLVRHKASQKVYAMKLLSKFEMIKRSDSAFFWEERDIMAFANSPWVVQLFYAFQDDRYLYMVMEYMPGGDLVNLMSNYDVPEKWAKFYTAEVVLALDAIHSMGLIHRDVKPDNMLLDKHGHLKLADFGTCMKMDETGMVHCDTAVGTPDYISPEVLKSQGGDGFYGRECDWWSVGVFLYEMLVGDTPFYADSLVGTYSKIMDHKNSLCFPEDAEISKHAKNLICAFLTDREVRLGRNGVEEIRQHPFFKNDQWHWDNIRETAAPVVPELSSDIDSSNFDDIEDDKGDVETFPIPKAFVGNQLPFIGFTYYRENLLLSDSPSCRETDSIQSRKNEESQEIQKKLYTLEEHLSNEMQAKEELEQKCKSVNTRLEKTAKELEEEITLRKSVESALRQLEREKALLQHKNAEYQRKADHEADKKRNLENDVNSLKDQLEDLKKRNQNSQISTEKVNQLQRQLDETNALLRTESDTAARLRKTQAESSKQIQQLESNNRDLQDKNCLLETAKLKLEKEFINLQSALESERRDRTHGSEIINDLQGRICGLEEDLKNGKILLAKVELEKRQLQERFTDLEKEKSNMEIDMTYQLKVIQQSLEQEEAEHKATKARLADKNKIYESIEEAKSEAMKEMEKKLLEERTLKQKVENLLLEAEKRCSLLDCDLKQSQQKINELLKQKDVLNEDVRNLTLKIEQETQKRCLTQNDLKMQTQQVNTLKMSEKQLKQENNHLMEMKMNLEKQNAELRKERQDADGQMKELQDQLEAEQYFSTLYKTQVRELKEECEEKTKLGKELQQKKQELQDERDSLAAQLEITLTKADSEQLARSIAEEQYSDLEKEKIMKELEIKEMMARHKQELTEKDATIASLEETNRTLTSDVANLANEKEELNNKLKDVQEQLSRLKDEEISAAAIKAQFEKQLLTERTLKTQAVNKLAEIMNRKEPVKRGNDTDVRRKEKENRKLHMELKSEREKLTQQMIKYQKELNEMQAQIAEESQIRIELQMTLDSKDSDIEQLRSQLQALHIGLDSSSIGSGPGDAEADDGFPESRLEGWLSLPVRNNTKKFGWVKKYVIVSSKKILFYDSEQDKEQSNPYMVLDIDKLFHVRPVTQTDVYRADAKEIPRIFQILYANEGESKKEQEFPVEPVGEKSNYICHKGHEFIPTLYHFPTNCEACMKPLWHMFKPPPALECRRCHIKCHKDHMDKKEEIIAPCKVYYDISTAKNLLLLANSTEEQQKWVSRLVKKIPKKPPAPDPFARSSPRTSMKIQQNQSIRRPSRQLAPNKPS", "assay": "ROCK assay (Caliper LABCHIP peptide phosphorylation), ROCK2;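 also: reaction stopped with EDTA, then phosphorylated and unphosphorylated peptide resolved by microfluidic electrophoresis, kinase inhibition computed at each compound concentration in dose-response series, DMSO under 2%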", "type": "biochemical", "settings": "5 μM ATP, 1.5 μM peptide substrate"}},
  "note": "Where two headings read alike, the source gives them in different places.",
  "data": [
    {"smiles": "C[C@@H](N)[C@H]1CC[C@H](C(=O)Nc2ccncc2)CC1", "note": "[Example Y-27632]", "values": [
      {"measurement": "blood pressure", "setting": "[1]; control rats", "value": "only a minor effect on blood pressure"},
      {"measurement": "blood pressure", "setting": "[1]; spontaneously hypertensive rat, renal hypertensive rat and deoxycortisone acetate salt hypertensive rat models", "value": "significantly decrease blood pressure"},
      {"measurement": "neointimal formation", "setting": "neointimal formation", "value": "inhibited neointimal formation"},
      {"measurement": "ventricular hypertrophy, fibrosis and function", "setting": "[2]", "value": "improve ventricular hypertrophy, fibrosis and function"}
    ]},
    {"smiles": "O=S(=O)(c1cccc2cnccc12)N1CCCNCC1", "note": "[fasudil]", "values": [
      {"measurement": "coronary stenosis and coronary constrictive remodeling", "setting": "[3]", "value": "progressively reduce coronary stenosis, as well as promote a regression of coronary constrictive remodeling"}
    ]},
    {"smiles": "C=C[C@@H](NC(=O)c1ccc(-c2cn[nH]c2)c(OC)c1)c1c(F)cccc1F", "note": "[Example 170, N-[(1R)-1-(2,6-difluorophenyl)prop-2-en-1-yl]-3-methoxy-4-(1H-pyrazol-4-yl)benzamide]", "values": [
      {"measurement": "IC50", "setting": "ROCK1", "value": 17.5, "unit": "nM"},
      {"measurement": "IC50", "setting": "ROCK2", "value": 10.5, "unit": "nM"}
    ]},
    {"smiles": "COc1cc(-c2cn[nH]c2)ccc1C(=O)NCc1c(F)cccc1Cl", "note": "[Example 185, N-[(2-chloro-6-fluorophenyl)methyl]-2-methoxy-4-(1H-pyrazol-4-yl)benzamide]", "values": [
      {"measurement": "IC50", "setting": "ROCK1", "value": 26.3, "unit": "nM"},
      {"measurement": "IC50", "setting": "ROCK2", "value": 6.48, "unit": "nM"}
    ]}
  ]
}
